The values below come from patent publication US8138168B1 (Takeda Pharmaceutical Company Limited, priority 2007, dated 2012).

For the assay, the target named is T1, Recombinant human renin (Homo sapiens, UniProt P00797).
T1 construct: isolate the active form (residues 67-406); made in house; host or cells: FreeStyle 293-F cells (transient expression of pcDNA3.1(+)/hREN)
T1 sequence (P00797 67-406): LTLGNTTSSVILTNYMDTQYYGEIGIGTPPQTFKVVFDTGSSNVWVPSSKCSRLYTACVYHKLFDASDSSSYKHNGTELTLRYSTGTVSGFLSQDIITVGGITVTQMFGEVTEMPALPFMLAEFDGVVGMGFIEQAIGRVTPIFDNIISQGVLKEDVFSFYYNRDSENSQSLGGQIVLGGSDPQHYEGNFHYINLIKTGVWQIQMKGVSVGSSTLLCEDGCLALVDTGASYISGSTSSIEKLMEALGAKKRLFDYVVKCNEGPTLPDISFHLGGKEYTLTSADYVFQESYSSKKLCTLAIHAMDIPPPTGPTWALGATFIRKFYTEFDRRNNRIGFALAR
Description: In vitro enzymatic activity assay of renin inhibitors (fluorogenic peptide substrate). Format: biochemical. The conditions noted are these: read-out: IC50 of Exemplified Compounds Against Renin. Summed up: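 Recombinant human renin (3 nM final) pre-incubated 10 min at 37 °C with compounds in pH 7.4 Hepes/EDTA/DTT/0.1 mg/mL BSA/Brij35 buffer (optionally plus 2% BSA), 5% DMSO final; fluorogenic QXL520/HiLyteFluo488 peptide substrate added.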

SMILES strings stand for the structures. pIC50: −log10 of the molar value.

Regarding `COCCCn1c([C@@H]2CCCN(C(=O)C[C@H](N)Cc3ccc(-c4ccc(C(=O)N[C@H](C)CO)cc4)cc3)C2)nc2ccccc21` [Compound 186, 4′-((R)-2-amino-4-((R)-3-(1-(3-methoxypropyl)-1H-benzo[d]imidazol-2-yl)piperidin-1-yl)-4-oxobutyl)-N-((R)-1-hydroxypropan-2-yl)biphenyl-4-carboxamide], the pIC50 was greater than 7.00.

As to `COCCCn1c([C@@H]2CCCN(C(=O)C[C@H](N)Cc3ccc(N4CCC(C(=O)OC)CC4)cc3)C2)nc2ccccc21` [Compound 237, methyl 1-(4-((R)-2-amino-4-((R)-3-(1-(3-methoxypropyl)-1H-benzo[d]imidazol-2-yl)ppiperidin-1-yl)-4-oxobutyl)phenyl)piperidine-4-carboxylate], the pIC50 is 6.00 to 7.00. As for `COCCCn1c([C@@H]2CCCN(C(=O)C[C@H](N)Cc3ccc(-c4ccc5nccn5c4)cc3)C2)nc2ccccc21` [Compound 139, (R)-3-amino-4-(4-(imidazo[1,2-a]pyridin-6-yl)phenyl)-1-((R)-3-(1-(3-methoxypropyl)-1H-benzo[d]imidazol-2-yl)piperidin-1-yl)butan-1-one], the pIC50 is greater than 7.00. With `COCCCn1c([C@@H]2CCCN(C(=O)C[C@H](N)Cc3ccc4ccccc4c3)C2)nc2ccc([N+](=O)[O-])cc21` [Compound 114, (R)-3-amino-1-((R)-3-(1-(3-methoxypropyl)-6-nitro-1H-benzo[d]imidazol-2-yl)piperidin-1-yl)-4-(naphthalen-2-yl)butan-1-one], the pIC50 was less than 6.00. Take `COCCCn1c([C@@H]2CCCN(C(=O)C[C@H](N)Cc3ccc(-c4ccc(C(=O)NCCOC(C)C)cc4)cc3)C2)nc2ccccc21` [Compound 179, 4′-((R)-2-amino-4-((R)-3-(1-(3-methoxypropyl)-1H-benzo[d]imidazol-2-yl)piperidin-1-yl)-4-oxobutyl)-N-(2-isopropoxyethyl)biphenyl-4-carboxamide]: the pIC50 was greater than 7.00. The result for `COCCCn1c([C@@H]2CCCN(C(=O)C[C@H](N)Cc3ccc4ccccc4c3)C2)nc2c1CCCC2` [Compound 241, (R)-3-amino-1((R)-3-(1-(3-methoxypropyl)-4,5,6,7-tetrahydro-1H-benzo[d]imidazol-2-yl)piperidin-1-yl)-4-(naphthalen-2-yl)butan-1-one] reads 6.00 to 7.00; that for `COCCCn1c([C@@H]2CCCN(C(=O)C[C@H](N)CNC(=O)Nc3ccccc3C(C)(C)C)C2)nc2ccccc21` [Compound 302, 1-((S)-2-amino-4-((R)-3-(1-(3-methoxypropyl)-1H-benzo[d]imidazol-2-yl)piperidin-1-yl)-4-oxobutyl)-3-(2-tert-butylphenyl)urea], 6.00 to 7.00. For `COCCCn1c([C@@H]2CCCN(C(=O)C[C@H](N)CNC(=O)c3ccc(-c4ccc(F)cc4)o3)C2)nc2ccccc21` [Compound 304, N-((S)-2-amino-4-((R)-3-(1-(3-methoxypropyl)-1H-benzo[d]imidazol-2-yl)piperidin-1-yl)-4-oxobutyl)-5-(4-fluorophenyl)furan-2-carboxamide], the pIC50 is 6.00 to 7.00. The result for `COCCCn1c([C@@H]2CCCN(C(=O)C[C@H](N)CNC(=O)Nc3cc(C)ccc3OC)C2)nc2ccccc21` [Compound 287, 1-((S)-2-amino-4-((R)-3-(1-(3-methoxypropyl)-1H-benzo[d]imidazol-2-yl)piperidin-1-yl)-4-oxobutyl)-3-(2-methoxy-5-methylphenyl)urea] reads 6.00 to 7.00; that for `COCCCn1c([C@@H]2CCCN(C(=O)C[C@H](N)CNC(=O)c3ccc(-c4cccs4)cc3)C2)nc2ccccc21` [Compound 259, N-((S)-2-amino-4-((R)-3-(1-(3-methoxypropyl)-1H-benzo[d]imidazol-2-yl)piperidin-1-yl)-4-oxobutyl)-4-(thiophen-2-yl)benzamide], greater than 7.00. For the molecule `COCCCn1c([C@@H]2CCCN(C(=O)C[C@H](N)Cc3ccc(-c4ccc(C(=O)N5CCOCC5)cc4)cc3)C2)nc2ccccc21` [Compound 127, (R)-3-amino-1-((R)-3-(1-(3-methoxypropyl)-1H-benzo[d]imidazol-2-yl)piperidin-1-yl)-4-(4′-(morpholine-4-carbonyl)biphenyl-4-yl)butan-1-one], the negative-log IC50 (pIC50) is greater than 7.00. As for `N[C@@H](CC(=O)N1CCCC(c2nc3ccccc3[nH]2)C1)Cc1csc2ccccc12` (stereo partly drawn) [Compound 29, (3R)-1-(3-(1H-benzo[d]imidazol-2-yl)piperidin-1-yl)-3-amino-4-(benzo[b]thiophen-3-yl)butan-1-one], the figure is less than 6.00; as for `COCCCn1c([C@@H]2CCCN(C(=O)C[C@H](N)CNC(=O)Nc3cc(OC)ccc3OC)C2)nc2ccccc21` [Compound 273, 1-((S)-2-amino-4-((R)-3-(1-(3-methoxypropyl)-1H-benzo[d]imidazol-2-yl)piperidin-1-yl)-4-oxobutyl)-3-(2,5-dimethoxyphenyl)urea], 6.00 to 7.00; as for `COCCCn1c([C@@H]2CCCN(C(=O)C[C@H](N)CNC(=O)NC3CCCCC3)C2)nc2ccccc21` [Compound 323, 1-((S)-2-amino-4-((R)-3-(1-(3-methoxypropyl)-1H-benzo[d]imidazol-2-yl)piperidin-1-yl)-4-oxobutyl)-3-cyclohexylurea], less than 6.00. With `COCCCn1c([C@@H]2CCCN(C(=O)C[C@H](N)CNC(=O)c3ccccc3OC)C2)nc2ccccc21` [Compound 327, N-((S)-2-amino-4-((R)-3-(1-(3-methoxypropyl)-1H-benzo[d]imidazol-2-yl)piperidin-1-yl)-4-oxobutyl)-2-methoxybenzamide], the pIC50 is less than 6.00. With `CC(=O)NCCn1c([C@@H]2CCCN(C(=O)C[C@H](N)Cc3ccc(-c4ccc(N)nc4)cc3)C2)nc2ccccc21` [Compound 446, N-(2-(2-((R)-1-((R)-3-amino-4-(4-(6-aminopyridin-3-yl)phenyl)butanoyl)piperidin-3-yl)-1H-benzo[d]imidazol-1-yl)ethyl)acetamide], the pIC50 is 6.00 to 7.00.

As to `COCCCn1c(C(C)(C)C)cnc1C1(O)CCCN(C(=O)C[C@H](N)Cc2ccc(-c3ccc(C(=O)OC)cc3)cc2)C1` (stereo partly drawn) [Compound 242, methyl 4′-((2R)-2-amino-4-(3-(5-tert-butyl-1-(3-methoxypropyl)-1H-imidazol-2-yl)-3-hydroxypiperidin-1-yl)-4-oxobutyl)biphenyl-4-carboxylate], the pIC50 is less than 6.00. The result for `NC(=O)CCn1c([C@@H]2CCCN(C(=O)C[C@H](N)Cc3ccc(-c4ccc(Cl)cc4)cc3)C2)nc2ccccc21` [Compound 489, 3-(2-((R)-1-((R)-3-amino-4-(4′-chlorobiphenyl-4-yl)butanoyl)piperidin-3-yl)-1H-benzo[d]imidazol-1-yl)propanamide] reads less than 6.00; that for `Nc1ncc(-c2ccc(C[C@@H](N)CC(=O)N3CCC[C@@H](c4nc5ccccc5n4CCF)C3)cc2)cn1` [Compound 509, (R)-3-amino-4-(4-(2-aminopyrimidin-5-yl)phenyl)-1-((R)-3-(1-(2-fluoroethyl)-1H-benzo[d]imidazol-2-yl)piperidin-1-yl)butan-1-one], 6.00 to 7.00; that for `COCCCn1c([C@@H]2CCCN(C(=O)C[C@H](N)CNC(=O)Nc3ccccc3OC(F)(F)F)C2)nc2ccccc21` [Compound 265, 1-((S)-2-amino-4-((R)-3-(1-(3-methoxypropyl)-1H-benzo[d]imidazol-2-yl)piperidin-1-yl)-4-oxobutyl)-3-(2-(trifluoromethoxy)phenyl)urea], 6.00 to 7.00.

Broadly, the pIC50 is −log10 of the IC50, conventionally taken in molar units.
